PubChem BioAssay AID330 (DTP/NCI, 2004)
Values joined by “and” are separate entries in the source; they are usually repeats but may differ in a detail not shown here. Equal values may be shown once. Toxic doses and inconclusive results are not listed.

System: P388 leukemia ip, CD2F1 mice, survival T/C
Experiment: NCI In Vivo Anticancer Drug Screen. Data for tumor model P388 Leukemia (intraperitoneal) in CD2F1 (CDF1) mice
Details: endpoint: median survival time, higher = longer survival
How it was run: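 Mice carrying the transplanted tumor received test compound or vehicle. Survival was recorded in each group, and the value is the treated-group measurement divided by that of the vehicle-treated control group.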

[1] = dose: 100.0 mg/kg/injection, schedule: Q01DX009 (ip), vehicle: saline with Tween-80
[2] = dose: 200.0 mg/kg/injection, schedule: Q01DX009 (ip), vehicle: saline with Tween-80
[3] = dose: 50.0 mg/kg/injection, schedule: Q01DX005 (ip), vehicle: Klucel (hydroxypropylcellulose) (HPC)
[4] = dose: 100.0 mg/kg/injection, schedule: Q01DX005 (ip), vehicle: Klucel (hydroxypropylcellulose) (HPC)
[5] = dose: 200.0 mg/kg/injection, schedule: Q01DX005 (ip), vehicle: Klucel (hydroxypropylcellulose) (HPC)
[6] = dose: 60.0 mg/kg/injection, schedule: Q01DX005 (ip), vehicle: saline with Tween-80
[7] = dose: 120.0 mg/kg/injection, schedule: Q01DX005 (ip), vehicle: saline with Tween-80
[8] = dose: 240.0 mg/kg/injection, schedule: Q01DX005 (ip), vehicle: saline with Tween-80
[9] = dose: 50.0 mg/kg/injection, schedule: Q01DX009 (ip), vehicle: saline
[10] = dose: 100.0 mg/kg/injection, schedule: Q01DX009 (ip), vehicle: saline
[11] = dose: 200.0 mg/kg/injection, schedule: Q01DX009 (ip), vehicle: saline
[12] = dose: 100.0 mg/kg/injection, schedule: Q04DX003 (ip), vehicle: Klucel (hydroxypropylcellulose) (HPC)
[13] = dose: 200.0 mg/kg/injection, schedule: Q04DX003 (ip), vehicle: Klucel (hydroxypropylcellulose) (HPC)
[14] = dose: 400.0 mg/kg/injection, schedule: Q04DX003 (ip), vehicle: Klucel (hydroxypropylcellulose) (HPC)
[15] = dose: 50.0 mg/kg/injection, schedule: Q01DX005 (ip), vehicle: saline with Tween-80
[16] = dose: 100.0 mg/kg/injection, schedule: Q01DX005 (ip), vehicle: saline with Tween-80
[17] = dose: 200.0 mg/kg/injection, schedule: Q01DX005 (ip), vehicle: saline with Tween-80

Compound: CC(=O)Nc1ccc2c(Nc3ccc(NS(C)(=O)=O)cc3)c3ccccc3nc2c1
- T/C (dose: 0.09 mg/kg/injection, schedule: Q01DX009 (ip), vehicle: saline): 151 % of control
- T/C (dose: 0.09 mg/kg/injection, schedule: Q04DX003 (ip), vehicle: saline): 156 % of control
- T/C (dose: 0.13 mg/kg/injection, schedule: Q01DX009 (ip), vehicle: saline): 151 % of control
- T/C (dose: 0.13 mg/kg/injection, schedule: Q04DX003 (ip), vehicle: saline): 175 % of control
- T/C (dose: 0.2 mg/kg/injection, schedule: Q01DX009 (ip), vehicle: saline): 164 % of control
- T/C (dose: 0.2 mg/kg/injection, schedule: Q04DX003 (ip), vehicle: saline): 166 % of control
- T/C (dose: 0.29 mg/kg/injection, schedule: Q01DX009 (ip), vehicle: saline): 190 % of control
- T/C (dose: 0.3 mg/kg/injection, schedule: Q01DX009 (ip), vehicle: saline): 169 % of control
- T/C (dose: 0.3 mg/kg/injection, schedule: Q04DX003 (ip), vehicle: saline): 175 % of control
- T/C (dose: 0.44 mg/kg/injection, schedule: Q01DX009 (ip), vehicle: saline): 193 % of control
- T/C (dose: 0.66 mg/kg/injection, schedule: Q01DX009 (ip), vehicle: saline): 193 % of control
- T/C (dose: 1.0 mg/kg/injection, schedule: Q01DX009 (ip), vehicle: saline): 200 % of control
- T/C (dose: 1.0 mg/kg/injection, schedule: Q04DX003 (ip), vehicle: saline): 155 % of control
- T/C (dose: 2.2 mg/kg/injection, schedule: Q04DX003 (ip), vehicle: saline): 177 % of control
- T/C (dose: 3.3 mg/kg/injection, schedule: Q04DX003 (ip), vehicle: saline): 186 % of control
- T/C (dose: 5.0 mg/kg/injection, schedule: Q04DX003 (ip), vehicle: saline): 227 % of control
- T/C (dose: 7.5 mg/kg/injection, schedule: Q04DX003 (ip), vehicle: saline): 245 % of control

Compound: COc1ccc2c(c1)c(C(=O)O)cc(=O)n2C
- T/C [1]: 95 % of control
- T/C [2]: 90 % of control
- T/C (dose: 400.0 mg/kg/injection, schedule: Q01DX009 (ip), vehicle: saline with Tween-80): 90 % of control

Compound: Cc1cc(N/N=C/c2ccc([N+](=O)[O-])o2)c2cc3c(cc2n1)OCO3
- T/C [3]: 91 % of control
- T/C [4]: 98 % of control
- T/C [5]: 96 % of control

Compound: COc1ccc(C(=O)CC2(O)C(=O)Nc3ccccc32)cc1O (stereo not drawn)
- T/C [6]: 105 % of control
- T/C [7]: 102 % of control
- T/C [8]: 102 % of control

Compound: CC(=O)CC(C)O (stereo not drawn)
- T/C [9]: 99 % of control
- T/C [10]: 89 % of control
- T/C [11]: 92 % of control

Compound: CCOC(=O)C(CCC(OCC)OCC)C(=O)OCC
- T/C [9]: 103 % of control
- T/C [10]: 102 % of control
- T/C [11]: 101 % of control

Compound: O=S(=O)(O)/[N+]([O-])=N/O
- T/C (dose: 100.0 mg/kg/injection, schedule: Q04DX003 (ip), vehicle: saline): 100 % of control
- T/C (dose: 200.0 mg/kg/injection, schedule: Q04DX003 (ip), vehicle: saline): 100 % of control
- T/C (dose: 400.0 mg/kg/injection, schedule: Q04DX003 (ip), vehicle: saline): 100 % of control

Compound: Cc1cn(C)c2c1-c1oncc1CC2
- T/C [12]: 100 % of control
- T/C [13]: 100 % of control
- T/C [14]: 100 % of control

Compound: O=C(Nc1cccc2ccccc12)OCCN=Cc1ccccc1O.O=C(Nc1cccc2ccccc12)OCCN=Cc1ccccc1O.[Cu]
- T/C (dose: 100.0 mg/kg/injection, schedule: Q04DX002 (ip), vehicle: saline with Tween-80): 94 % of control
- T/C (dose: 200.0 mg/kg/injection, schedule: Q04DX002 (ip), vehicle: saline with Tween-80): 94 % of control
- T/C (dose: 400.0 mg/kg/injection, schedule: Q04DX002 (ip), vehicle: saline with Tween-80): 107 % of control and 94 % of control

Compound: Cc1nnc2c(N)nccn12
- T/C (dose: 100.0 mg/kg/injection, schedule: Q01DX001 (ip), vehicle: Klucel (hydroxypropylcellulose) (HPC)): 94 % of control
- T/C (dose: 200.0 mg/kg/injection, schedule: Q01DX001 (ip), vehicle: Klucel (hydroxypropylcellulose) (HPC)): 96 % of control

Compound: O=[N+]([O-])c1ccc(SNc2ccc(NSc3ccc([N+](=O)[O-])cc3)cc2)cc1
- T/C (dose: 12.5 mg/kg/injection, schedule: Q01DX001 (ip), vehicle: saline with Tween-80): 95 % of control
- T/C (dose: 25.0 mg/kg/injection, schedule: Q01DX001 (ip), vehicle: saline with Tween-80): 100 % of control
- T/C (dose: 50.0 mg/kg/injection, schedule: Q01DX001 (ip), vehicle: saline with Tween-80): 100 % of control

Compound: N#Cc1c(O)c2c(c(O)c1C#N)C(=O)c1ccccc1C2=O
- T/C [15]: 97 % of control
- T/C [16]: 95 % of control
- T/C [17]: 92 % of control

Compound: O=C(Cc1nc2cc(Cl)c(Cl)cc2nc1CC(=O)c1ccncc1)c1ccncc1
- T/C [6]: 93 % of control
- T/C [7]: 90 % of control
- T/C [8]: 90 % of control

Compound: CCCCCCCCCCC(=O)C(=O)c1ccc(O)c(C)c1O
- T/C (dose: 50.0 mg/kg/injection, schedule: Q01DX009 (ip), vehicle: Klucel (hydroxypropylcellulose) (HPC)): 100 % of control
- T/C (dose: 100.0 mg/kg/injection, schedule: Q01DX009 (ip), vehicle: Klucel (hydroxypropylcellulose) (HPC)): 99 % of control
- T/C (dose: 200.0 mg/kg/injection, schedule: Q01DX009 (ip), vehicle: Klucel (hydroxypropylcellulose) (HPC)): 110 % of control

Compound: CCOC(=O)NCC(C)(C)CNC(=O)OCC
- T/C (dose: 3.13 mg/kg/injection, schedule: Q01DX009 (ip), vehicle: saline): 100 % of control
- T/C (dose: 6.25 mg/kg/injection, schedule: Q01DX009 (ip), vehicle: saline): 105 % of control
- T/C (dose: 12.5 mg/kg/injection, schedule: Q01DX009 (ip), vehicle: saline): 105 % of control
- T/C (dose: 25.0 mg/kg/injection, schedule: Q01DX009 (ip), vehicle: saline): 103 % of control

Compound: C/C(=C/C=C(c1ccccc1)c1ccccc1)C1CCC2C3CCC4CC5CCC4(C)C3(O5)C(=O)CC12C (stereo not drawn)
- T/C (dose: 6.25 mg/kg/injection, schedule: Q04DX002 (sc), vehicle: steriod suspending solution): 102 % of control
- T/C (dose: 12.5 mg/kg/injection, schedule: Q04DX002 (sc), vehicle: steriod suspending solution): 105 % of control
- T/C (dose: 25.0 mg/kg/injection, schedule: Q04DX002 (sc), vehicle: steriod suspending solution): 101 % of control
- T/C (dose: 50.0 mg/kg/injection, schedule: Q04DX002 (sc), vehicle: steriod suspending solution): 101 % of control

Compound: CNC(=O)Oc1cccc2c(OC3OC(CO)C(O)C(O)C3O)cccc12 (stereo not drawn)
- T/C [12]: 97 % of control
- T/C [13]: 106 % of control
- T/C [14]: 101 % of control

Compound: CCOC(=O)/C(=N/NS(=O)(=O)c1c(C)cc(C)cc1C)c1ccco1
- T/C (dose: 50.0 mg/kg/injection, schedule: Q01DX009 (ip), vehicle: saline with Tween-80): 113 % of control
- T/C [1]: 106 % of control
- T/C [2]: 104 % of control

Compound: C(=N[C@H]1CCCC[C@H]1N=Cc1ccc[nH]1)c1ccc[nH]1
- T/C (dose: 6.25 mg/kg/injection, schedule: Q01DX005 (ip), vehicle: saline with Tween-80): 99 % of control
- T/C (dose: 12.5 mg/kg/injection, schedule: Q01DX005 (ip), vehicle: saline with Tween-80): 101 % of control
- T/C (dose: 25.0 mg/kg/injection, schedule: Q01DX005 (ip), vehicle: saline with Tween-80): 100 % of control
- T/C [16]: 86 % of control

Compound: CC(=O)Nc1ccc2cc(-c3ccc(Cl)cc3)c3nnnn3c2n1
- T/C [15]: 96 % of control
- T/C [16]: 94 % of control
- T/C [17]: 93 % of control

Compound: Nc1ccc(C(=O)Nc2ccc(S(=O)(=O)O)c3cccc(O)c23)cc1
- T/C [3]: 109 % of control
- T/C [4]: 111 % of control
- T/C [5]: 109 % of control

Compound: CSc1nc(C#N)c(N)s1
- T/C [6]: 101 % of control
- T/C [7]: 95 % of control
- T/C [8]: 95 % of control

Compound: COc1ccc2c(c1)CCC(Cc1ccc(Cl)cc1)C2c1ccc(OCCN2CCCC2)cc1 (stereo not drawn)
- T/C (dose: 6.25 mg/kg/injection, schedule: Q01DX005 (ip), vehicle: suspension in saline): 100 % of control
- T/C (dose: 12.5 mg/kg/injection, schedule: Q01DX005 (ip), vehicle: suspension in saline): 98 % of control
- T/C (dose: 25.0 mg/kg/injection, schedule: Q01DX005 (ip), vehicle: suspension in saline): 98 % of control
- T/C (dose: 50.0 mg/kg/injection, schedule: Q01DX005 (ip), vehicle: suspension in saline): 100 % of control

Compound: OCC1OC([Se])C(O)C(O)C1O.[CH3][Sb][CH3] (stereo not drawn)
- T/C [6]: 112 % of control
- T/C [7]: 104 % of control
